Data published in US20120172298A1, “GLP-1 AND FGF21 COMBINATIONS FOR TREATMENT OF DIABETES TYPE 2” (Novo Nordisk A/S, priority 2009, published 2012).
Where “and” joins values, the source holds several entries; their conditions need not be identical. Identical values can stand only once. Values belong to the molecule of their own block, whether it stands above or below them.

How the values were obtained:
[1] = tested on: pancreatic islets from diabetic db/db mice; assay: Restoration of glucose stimulated insulin release ex vivo (islet perifusion); format: cell-based; set-up: AUC for time 35-75 minutes (glucose response), single repetitions / AUC for time 75-140 minutes (forskolin response), single repetitions: unit not given here; details: FGF21 = 50 nM Compound F1, GLP-1 = 100 nM Compound G3
Protocol: This ex vivo example investigates the ability of pancreatic islets from diabetic db/db mice to restore, in response to treatment with FGF21 and GLP-1 compounds, the ability to release insulin in response to glucose stimulation.
Islets from 25 db/db mice (Charles River), 15 weeks of age, were isolated according to the following procedure:
Animals were killed by cervical dislocation and fixated with pins on a Styrofoam plate. Pancreata were removed and transferred to a Packard vial containing 5 ml collagenase (Life Science, grade II, cat. no. 100502) 300 units/ml (one pancreas/vial) which was kept on ice until all pancreata were removed. Then the pancreata were shaken in the Grant/Edmund S25 thermoshaker at 200 strokes/min. at 37° C. for 5 min. The tissue was transferred to a fresh vial containing 5 ml 150 units/ml collagenase (supernatant was discarded) and shaken again in the thermoshaker for 5 min. The tissue was further shaken 3-5 min. on the thermoshaker, and thereafter all shaking is done by hand for 5-10 sec. each time. These steps were repeated until all tissue was digested. The process was followed continuously under the stereomicroscope and once digested the tissue was pooled and collected in progressively fewer tubes. All supernatants were washed 3 times in HBSS+0.5% NCS (HBSS (10×) from Gibco, cat. no. 14060, is diluted 10× in H2O before use, Newborn Calf Serum (NCS) from Gibco, cat. no. 26010-066), allowed to sediment for 5 min. between each wash, and left on ice, following which the islets were ready for picking. Islets were purified by transferring a little bit of supernatant to a Petri dish, filling up with HBSS+NCS and subsequently transferring (by mouth pipetting) with a constriction pipette to a new Petri dish. From there the islet were re-picked until pure, and then incubated in RPMI 1640 medium (Gibco, cat no 61870-010)+10% NCS at 37° C.
After incubation, the islets were washed in Krebs Ringer solution (115 mM NaCl, 4.7 mM KCl, 2.6 mM CaCl2, 1.2 mM KH2PO4, 1.2 mM MgSO4, 10 mM HEPES, 0.2% BSA, 2 mM glutamine, 5 mM NaHCO3, pH 7.4) and subsequently used in an islet perifusion experiment (Suprafusion 2500 from Brandel). For each of the three preincubation conditions four perifusion columns each with 60 islets were used. The islets were placed in Bio-gel P2 (Bio-Rad. cat. no. 150-4114) in the columns with a nylon mesh below and above the gel. The islets were initially perifused for 40 minutes with Krebs Ringer solution containing 3 mM glucose to obtain a stable baseline of insulin release. After 40 minutes the buffer was exchanged to 15 mM glucose for 30 minutes (time 40-70 min). Then the buffer was exchanged to 15 mM glucose containing 10 μM forskolin (Tocris 1099, batch 3A/86008) for 40 minutes (time 70-110 min). Finally the buffer was exchanged to low glucose (3 mM) for 30 minutes (time 110-140 min). The buffer was set to flow through the perifusion system at a rate of 0.3 ml/minute. Samples were taken every 5 minutes from time 30 to 140 min. Samples were stored at −20° C. and subsequently analysed for insulin, essentially as described by Poulsen et al. in Journal of Biomolecular Screening 12(X); p. 1-8, 2007 (LOCI (Luminescent Oxygen Channeling Immunoassay) sandwich immunoassay).
The results (ng/ml insulin) are shown in Table 1 below as mean+/−standard error of mean (SEM). The figures for the control and the FGF21 compound are based on three repetitions (due to problems with one of the four columns in these two experiments), while the figures for the GLP-1 compound are based on four repetitions.
The corresponding Area Under the Curve (designated AUC) figures were also calculated, and for the statistics the Student's T-test was used.

[2] = tested on: 3T3-L1 adipocytes; assay: FGF21 activity assay, glucose uptake in 3T3-L1 adipocytes; format: cell-based, mouse
Protocol: The following assay may be used for determining the biological activity, or potency, of FGF21 compounds.
Mouse 3T3-L1 fibroblasts (e.g. available from ATCC, catalogue no. CL-173) are maintained in basal medium (DMEM (4500 mg/I Glucose) with 10% Fetal Bovine Serum (FBS) and Penicillin/Streptomycin). The cells are not allowed to reach confluence and should be passed (transferred to new vials) before reaching approx. 60% of confluency (by visual inspection).
For the glucose uptake assay, cells are plated 80,000 cells/well in a 24 well plate, or 20,000 cells/well in a 96 well plate, and when they reach confluency (high density, with a view to have differentiated adipose cells made), the medium is changed from basal medium to basal medium containing Troglitazone, IBMX, Dexamethasone (commercially available from, e.g., Sigma) and human insulin (commercially available from, e.g., Novo Nordisk A/S).
The cells are used 7-14, preferably 7-10, days after initiation of differentiation. […] The cells are lysed with Triton X-100 and lysates transferred to a 96 wells plate, microscint-40 (commercially available from, e.g., Perkin Elmer) is added and amount of tracer counted in a TOP-counter (e.g. a Packard top-counter from Perkin Elmer).
The EC50 of the FGF21 compound in question is calculated, and may be indicated relative to that of, e.g., compound F1.

[3] = target: human GLP-1 receptor (human, UniProt P43220 24-463); assay: cell-based or functional assay
Chain of human GLP-1 receptor (P43220 24-463): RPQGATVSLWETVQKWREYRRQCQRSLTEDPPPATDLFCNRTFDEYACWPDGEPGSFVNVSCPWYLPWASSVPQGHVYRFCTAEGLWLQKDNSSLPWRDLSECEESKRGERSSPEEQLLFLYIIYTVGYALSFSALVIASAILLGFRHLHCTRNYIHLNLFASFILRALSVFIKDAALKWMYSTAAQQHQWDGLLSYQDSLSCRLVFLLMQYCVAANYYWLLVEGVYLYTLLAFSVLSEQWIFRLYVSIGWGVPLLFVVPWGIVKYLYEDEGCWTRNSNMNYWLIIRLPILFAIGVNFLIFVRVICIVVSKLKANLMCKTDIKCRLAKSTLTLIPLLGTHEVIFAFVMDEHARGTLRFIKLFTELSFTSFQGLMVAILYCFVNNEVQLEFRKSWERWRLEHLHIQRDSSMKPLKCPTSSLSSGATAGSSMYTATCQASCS

[4] = insulin AUC per perifusion column

Molecule: N-epsilon26-[2-(2-{2-[2-(2-{2-[(S)-4-Carboxy-4-(17-carboxyheptadecanoylamino)butyrylamino]ethoxy}-ethoxy)acetylamino]ethoxy}ethoxy)acetyl][Aib8,Arg34]GLP-1-(7-37) [compound G3]
AUC for time 35-75 minutes (glucose response), single repetitions [1, 4]: 450.5 and 528.5 and 492.9 and 367.8 | AUC for time 75-140 minutes (forskolin response), single repetitions [1, 4]: 3339 and 4005 and 3037 and 2674 | AUC for time 75-140 minutes (forskolin response), mean ([1]; insulin AUC, * FGF21 vs GLP-1): (mean 3239) | AUC for time 35-75 minutes (glucose response), mean ([1]; insulin AUC, ** vs control): (mean 459.9**)

Molecule: S-71-({2-[2-(2-{2-[2-(2-{2-[(S)-4-carboxy-4-(19-carboxynonadecanoyl-amino)butyrylamino]ethoxy}ethoxy)acetylamino]ethoxy}ethoxy)acetylamino]ethylcarbamoyl}methyl)-[Cys71]Met-FGF21 [compound F2]
EC50 relative to that of compound F1 [2]: 11%

B1: N-alpha1-[2-(2-{2-[2-(2-{2-[(S)-4-carboxy-4-(17-carboxyheptadecanoylamino)butyrylamino]ethoxy}ethoxy)acetylamino]ethoxy}ethoxy)acetyl][Arg56, Arg59, Arg69, Arg122]-Met-FGF21 (protein, listed as Homo sapiens)
chain: HPIPDSSPLLQFGGQVRQRYLYTDDAQQTEAHLEIREDGTVGGAADQSPESLLQLRALRPGVIQILGVRTSRFLCQRPDGALYGSLHFDPEACSFRELLLEDGYNVYQSEAHGLPLHLPGNRSPHRDPAPRGPARFLPLPGLPPALPEPPGILAPQPPDVGSSDPLSMVGPSQGRSPSYAS
modifications: N-terminal Met; N-alpha fatty diacid-gGlu-OEG-OEG acylation; mat_peptide (1)..(181); DISULFID (75)..(93)
EC50 relative to that of compound F1 [2]: 30%

EC50 of cAMP formation (AlphaScreen cAMP assay), relative to that of compound G1 [3]: ~5 times the EC50 of compound G1
B2: N-epsilon37-[2-(2-{2-[2-(2-{2-[(S)-4-Carboxy-4-({trans-4-[(19-carboxynonadecanoylamino)methyl]cyclohexanecarbonyl}amino)butyrylamino]ethoxy}ethoxy)acetylamino]e … (peptide)
peptide: HAEGTFTSDVSSYLEEQAAREFIAWLVRGRK
modifications: DesaminoHis at position 7 (GLP-1 numbering; position 1 of SEQ ID NO:3); Lys37 acylated at N-epsilon with 19-carboxynonadecanoyl-Trx-gamma-Glu-OEG-OEG albumin binder
